# From US20260240865A1, “HARNESSING IKZF:BETA-CATENIN COMPLEXES IN THE TREATMENT OF LYMPHOCYTE ASSOCIATED DISEASES OR CONDITIONS” (Yale University, priority 2022, published 2026)
# “Also recorded” adds a separate entry of the source.
# Legend:
# autoreactive B-cells = assay: Genetic mouse models for SLE and RA treated with GSK3β inhibitor; assay type: in vivo; settings: 4 injections i.p., 20 mg/kg, once full-blown disease has developed
# Excerpt: β-catenin activation in mouse models for SLE. As mouse models for SLE, lupus-prone B6.Sle1.Yaa mice will be studied, to be crossed on the B6Mb1^+/Crex Ctnnb1^ex3fl/fl model for B-cell-specific accumulation of β-catenin (FIG. 25). B6.Sle1.Yaa mice only require one backcross then intercross for Sle1 homozygosity, a large locus on chromosome 1 that promotes lupus susceptibility. One caveat of the B6.Sle1.Yaa model is that these are male mice, by contrast to female-dominant lupus in patients, since disease penetrance requires a second copy of Tlr7 on the Y chromosome (the Yaa allele). The B6.Sle1.Yaa faithfully replicates these outcomes as observed in other lupus-prone strains, including female predominant strains such as NZB/WF1 and MRL/1pr, or single gene models.
# β-catenin activation in mouse models for RA. For collagen-induced arthritis (CIA) as a model for RA, disease is modeled on a B6 background with the B6 Mbl^+/Cre×Ctnnb1^ex3fl/fl allele using chicken type II collagen as an immunogen. […] Both models of inflammatory synovitis have been established, CIA induced in DBA1 and B6. The colonies are readily available for analyzing outcomes in these animals, including detailed analysis of B- and T-cell responses, and degree of synovitis and joint damage. […]
# [1] = tested on: B-lymphoid leukemia and lymphoma cells; assay: Cell viability assay (Cell Titer Glo 2.0) with GSK3β inhibitors; assay type: cell-based, human
# [2] = tested on: B-lymphoid leukemia and lymphoma cells; assay: as above; assay type: cell-based, human; remark: listed apart in the source
# Description: Forty thousand patient-derived pre-B ALL cells or twenty thousand leukemia/lymphoma cell lines or ten thousand colon/lung cancer cells were seed in a volume of 80 μl in complete growth medium on 96-well plate. GSK3β3 inhibitors were added at the indicated concentration in a total volume of 100 μl. After treatment for 3 days, Cell Titer Glo 2.0 assays (Promega) were performed according to the manufacturer's instructions. Relative viability was calculated by measuring the luminescence value and normalizing it to baseline values of untreated cells.
# (§1) Data are shown as mean±s.d. unless stated. Statistical analysis was performed by GraphPad Prism 7 (GraphPad Software Inc.) using unpaired two-tailed t test or log-rank test as indicated in figure legends. Significance was considered at P<0.05. Kaplan-Meier survival analysis was used to estimate OS with GraphPad Prism 7. The investigators were not blinded to allocation during experiments and outcome assessment. Experiments were repeated to ensure reproducibility of the observations.
# β-catenin = assay: Western blot of colonies from MDS-derived CD34+ GFP+ progenitor cells; assay type: cell-based, human; settings: large colonies after 12 days
# Description: (§2) Cells were washed twice with ice-cold PBS and were lysed in CelLytic buffer (Sigma-Aldrich) supplemented with 1% protease inhibitor cocktail (Roche Diagnostics), 1% phosphatase inhibitor cocktail (EMD Millipore) and 1 mM PMSF (CST) on ice. 10-20 μg of cell lysates were separated on precast gels (Bio-Rad) and transferred on nitrocellulose membranes (Bio-Rad). After blocking for an hour in TBS-T with 2% BSA, membranes were probed with the appropriate primary antibodies listed in Table 6. Membranes were incubated with alkaline-phosphatase conjugated secondary antibodies (Invitrogen) and analyzed with Chemi Doc™ MP Imaging System (Bio-Rad). For fractionation experiment Nuclear and Cytoplasmic Extraction Reagent (Thermo Scientific) was used according to manufacturer's instructions.
# For colony forming assays, 10,000 mouse BCR-ABL1 or NRAS^G12D were grown on MethoCult medium (M3231 or M3630 (with IL-7) respectively, StemCell Technologies) in 3-cm diameter dishes with an extra dish filled with water to prevent evaporation. […] For all colony forming experiments, colonies were imaged and counted using GelCount (Oxford Optronix) and 7-14 days after plating.
# Non-targeted and targeted CD34^+ GFP^+ cells were stimulated in the presence of human cytokines and colony forming assays were performed. Large colonies were analyzed by Western blot after 12 days.
# [3] = tested on: β-catenin and MYC protein levels in B-ALL cells; assay: Western blot of β-catenin and MYC after GSK3β inhibitor treatment; assay type: cell-based, human
# Description: as §2
# [4] = cited from earlier work
# [5] = tested on: refractory B-ALL PDX (LAX2); assay: In vivo treatment of NSG mice bearing refractory B-ALL patient-derived xenografts
# Description: Patient derived BCR-ABL1 ALL were labeled with firefly luciferase and selected by 25 μg ml^−1 blasticidin. 1 million PDX cells pre-treated with LY2090314 (10 μg ml^−1) or vehicle control for four hours. Cells were washed twice and then injected via the tail vein into sublethally irradiated (190 cGy) NSG mice (8-12 week-old, female). LY2090314 or vehicle control (dissolved in 5% DMSO, 45% PEG300 and PBS) were administered intraperitoneally at dose of 12.5 mg kg^−1 body weight twice every day for 20 times. The in vivo expansion and leukemia burden were monitored by luciferase bioimaging (Lago X; Accela). Briefly, D-luciferin (Promega) was dissolved in PBS and injected intraperitoneally at a dose of 2.5 mg per mouse 15 min before measuring luminescent. All mice were anesthetized by 5% isoflurane and continued during detection of light emission with 2% isoflurane introduced through a nose cone. When the mice get the signs of leukemia (hunched back, weight loss and inability to move), they were euthanized. Bone marrow and spleen were collected and flow cytometry analysis was performed to check leukemia engraftment.
# as §1
compound,measurement,setting,value
O=C1NC(=O)C(c2cnc3ccccn23)=C1c1cn2c3c(cc(F)cc13)CN(C(=O)N1CCCCC1)CC2 [LY2090314],disease outcome in established SLE and RA,autoreactive B-cells,induce disease remission
same,IC50 in epithelial and myeloid cancer cells relative to B-ALL,[1]; 343 epithelial cancer cell lines (Prism Drug Repurposing Secondary Screen) vs B-ALL cell lines,236 fold
same,IC50 in epithelial and myeloid cancer cells relative to B-cell lymphoma,[1]; 343 epithelial cancer cell lines (Prism Drug Repurposing Secondary Screen) vs B-cell lymphoma cell lines,92 fold
same,responses in B-ALL PDX with vs without IKZF1-deletion,"[2]; 10 patient-derived xenografts, 5 with IKZF1-deletion",no significant differences
same,drug-responses in a larger panel of cell lines and PDX,"[2]; B-ALL, B-cell lymphoma, myeloid leukemia, colon, lung cancer, 0 up to 200 nM, 3 days",profound responses in B-ALL and B-cell lymphoma cells in the absence of significant effects on myeloid and epithelial tumor cells
same,selective cell death / drug response,"[2]; B-lymphoid vs myeloid and epithelial cells (PDX2, BV173, LAX2 vs THP1, SW620, H82), 3 days",induced cell death at low nanomolar concentrations selectively in B-lymphoid but not myeloid and epithelial cells; also recorded: B-cell selective activity at low nanomolar concentrations
same,responses in B-ALL PDX from chemotherapy-sensitive vs refractory/relapsed patients,[2]; FIG. 7D,did not affect responses
same,sensitivity of B-ALL cells with deletion of CTNNB1,"[2]; human B-ALL (BV173) gCTNNB1 vs gNT clones, 3 days",near-complete resistance
same,β-catenin accumulation in non-targeted control colonies,β-catenin,induced accumulation of β-catenin in all 7 non-targeted control colonies
same,β-catenin accumulation and MYC suppression,"[3]; B-ALL (PDX2) cells, 16 hours, FIGS. 7A, 7C, 18C",induced massive accumulation of β-catenin in parallel with acute suppression of MYC
same,MYC suppression in B-ALL cells with deletion of CTNNB1,"[3]; BV173, 20 nM, 16 hours",prevented suppression of MYC
same,β-catenin accumulation and MYC suppression in B-cell vs colon and lung cell lines,"[3]; pre-B cell and mature B-cell lines, colon and lung cancer cell lines, FIG. 28A",induced rapid accumulation of β-catenin protein and suppression of MYC in Ikaros-expressing B-cell lines but not colon and lung cell lines
same,adverse effects in clinical trials,[4]; Cmax micromolar,lymphopenia
same,Outcome: clinical responses,[4]; Phase 1 and 2,No clinical responses
same,Outcome: safety,[4]; Phase 1 and 2,"Phase 1 and 2, favorable safety"
same,Outcome: MTD,[4]; i.v.,80 mg
same,safety and tolerability / PK/PD profile in clinical trials,[4]; micromolar plasma concentrations (Cmax),demonstrated safety and tolerability at micromolar plasma concentrations
same,leukemia burden (bioluminescence imaging),"[5]; NSG mice with refractory B-ALL PDX, intraperitoneal, single agent vs vehicle",substantially reduced leukemia burden
same,overall survival,"[5]; NSG mice with refractory B-ALL PDX, intraperitoneal, P=6.5E-05, n=9",significantly extended overall survival
same,leukemia-initiation potential,"[5]; limiting doses (100-2,500 cells) of B-ALL PDX in transplant recipient mice",reduced the leukemia-initiation potential
same,weight loss / dose-limiting toxicity,[5]; treated NSG mice,did not show significant weight loss or other dose-limiting toxicity
